Patent publication US11471477B2, “Methods for treating triple-negative breast cancer” (Chan Zuckerberg Biohub, Inc., priority 2017, dated 2022)

What was measured:
MDA-MB468 cells = assay: Cell viability assay (WST-1), shRNA-transduced cells; type: cell-based, human; details: 4 days after transduction; normalized to control shRNA
Protocol: (§1) For in vitro cell line experiments, concentrated lentiviral supernatant (to achieve an MOI of 3) was mixed with cells at the time of seeding. Cells were monitored by visualization of RFP under fluorescence microscopy. All flow cytometry analyses were performed after at least 72 hours of infection.
(§2) For cell lines treated with chemical or infected with lentivirus, WST-1 Cell Proliferation Reagent (Roche) was added at 1:10 (v/v) final dilution to each well per manufacturer's instructions. Cells were subsequently incubated at 37° C. and 5% CO2. Between 1 and 4 hours after addition of reagent, plates were analyzed on a SpectraMax M3 Bioanalyzer (Molecular Devices). Absorbance for each well was measured at 450 nm (signal wavelength) and 650 nm (reference wavelength). Thus, the signal for each experimental sample was Absorbanceexperimental (A450nm-A650nm). To correct for the effect of media, Absorbancebackground (A450nm-A650nm) was obtained by measuring absorbance in a blank well. Thus, the background corrected signal for each sample Acorrected=Absorbanceexperimental−Absorbancebackground. All Acorrected values for the knockdowns were normalized to the Acorrected value for the control sample to obtain a ‘Relative Viability’.

MDA-MB231 cells = assay: as above; type: cell-based, human; details: 4 days after transduction; normalized to control shRNA
Protocol: as §1, §2

HS578T cells = assay: as above; type: cell-based, human; details: 4 days after transduction; normalized to control shRNA
Protocol: as §1, §2

PDX-T1 tumor cells = assay: Organoid colony formation assay; type: cell-based, human; details: colonies counted 2 weeks after transduction
Protocol: (§3) For in vivo PDX tumor growth and organoid colony formation experiments, concentrated lentiviral supernatant (to achieve an MOI of 10) was mixed with single cell suspensions of PDX tumor cells in organoid media with 4 μg/mL of Polybrene (Sigma-Aldrich). Organoid media consisted of: Advanced DMEM/F12 (Invitrogen), 10% FBS (Hyclone), 2.5% growth factor-reduced Matrigel (BD), 10 ng/mL mouse EGF (R&D), 100 ng/mL Noggin (R&D), 250 ng/mL RSPO-1 (R&D), 1× B27 (Invitrogen), 1× N2 (Invitrogen), and PSA (Life Technologies). Cells were then spinoculated by centrifuging at 15° C. for 2 hours at 1200×g. Cells were resuspended by pipetting and left overnight in 48-well ultra-low attachment cell culture plates (Corning).
For organoid colony formation assays, cells were transferred the next day to matrigel. For in vivo PDX assays, approximately 75% of the cells were injected into NSG mice as described in the PDX tumor engraftment section. […] Dissociated cells were resuspended in flow cytometry buffer and analyzed by flow cytometry to determine the ‘baseline’ RFP percentage for cells that were injected into the mice.
Irradiated L1-Wnt3a feeder cells (generous gift of Dr. Roel Nusse) were mixed with growth factor reduced matrigel (BD Biosciences) and allowed to solidify at 37° C. […] Colonies were counted under fluorescence microscopy. Only RFP positive colonies (which represent transduced cells) were counted. […]

[1] = test system: human mammary epithelial cells (HMEC); assay: Cell viability assay (WST-1), non-transformed mammary cells; type: cell-based; details: 4 days after transduction; normalized to control shRNA
Protocol: as §1, §2

PDX-T1 [2] = assay: RFP positive lung metastases in mice bearing PDX tumor xenografts; type: in vivo, NSG mice
Description: (§4) Xenograft tumors and mice lungs were surgically resected after the mice were euthanized. A 3 to 4 mm section is cut from each tumor and saved in ice cold PBS for imaging. The mice lungs and tumors were imaged on a M205FA Fluorescence Stereo Microscope (Leica) and images were captured with a DFC310FX camera (Leica).
(§5) Percentage of mice with RFP positive lung metastases from mice bearing PDX-T1 (FIG. 1K) or PDX-T4 (FIG. 1L) tumor xenografts are shown. Number of mice with RFP positive lung metastases and total number of mice in each treatment group is shown as a fraction for each condition. PDX tumor cells were transduced with either control shRNA or CDK19 targeting shRNA (shCDK19-1, shCDK19-2) (For FIG. 1K, n=9, experiment performed three times; For […], n=3, experiment performed once). […] In FIG. 1N, bright field images (left column) show gross lung morphology, FITC images (middle column) identify metastatic tumor cells labeled with GFP, and Texas-Red images (right column) identify shRNA-transduced metastatic cells labeled with RFP. We also tested the effect of CDK19 knockdown on PDX-T4, an aggressive PDX obtained from the brain metastasis of a patient with a chemotherapy-resistant inflammatory breast cancer.

PDX-T4 [3] = assay: as above; type: in vivo, NSG mice
Description: as §4, §5

PDX-T1 [4] = assay: Survival of mice engrafted with shRNA-transduced PDX-T1 xenografts; type: in vivo, NSG mice; details: mice with PDX-T1 tumors; vs control shRNA; sacrificed when tumor exceeded 17 mm
Description: We explored the effect of CDK19 knockdown on the growth of pre-established organoids in vitro and in pre-established PDX tumors in vivo. This aimed to model the treatment of patients' pre-existing tumors. […] In FIGS. 4A and 4B, number of organoid colonies at Day 0 (FIG. 4A) and Day 16 (FIG. 4B) after initiating doxycycline treatment is shown, ****P<0.0001; ns is P>0.05 (mean s.d., n=6, experiment performed twice, P values determined by unpaired t-test). […] In FIGS. 4C and 4D, the growth of pre-established tumors in the doxycycline fed NSG mice and control NSG mice are shown for inducCDK19KD-PDX-T1, ****P<0.0001; ***P<0.001 (mean±s.d., n=5, experiment performed twice, P values determined by unpaired t-test) (FIG. 4C) and inducCDK19KD-PDX-T3, ****P<0.0001; ***P<0.001 (mean±s.d., n=5, experiment performed once, P values determined by unpaired t-test) (FIG. 4D). CDK19 shRNA induced tumors were ultimately 82% smaller in inducCDK19KD-PDX-T1 tumors and 38% smaller in inducCDK19KD-PDX-T3 tumors when compared to control tumors (FIGS. 4C and 4D). […] Shown in FIG. 4E are Kaplan-Meir survival curves for mice engrafted with PDX-T1 xenografts transduced with control shRNA (black line), shCDK19-1 (solid gray line) or shCDK19-2 (dashed gray line). Mice were followed with weekly measurements of tumor diameters. Mice were sacrificed when the longest diameter of their tumor exceeded 17 mm. […]

PDX-T1 [5] = assay: PDX tumor growth in NSG mice, percentage of RFP positive cells by flow cytometry; type: in vivo; details: normalized to control shRNA
Protocol: as §3
(§6) For organoid colony formation assays, cells were transferred the next day to matrigel. For in vivo PDX assays, approximately 75% of the cells were injected into NSG mice as described in the PDX tumor engraftment section. The remainder 25% of cells were plated on matrigel and grown in organoid media for 72 hours until the cells became RFP positive. At that point media was removed and exchanged for dispase and incubated for 2-3 h until the matrigel dissolved. Dissociated cells were resuspended in flow cytometry buffer and analyzed by flow cytometry to determine the ‘baseline’ RFP percentage for cells that were injected into the mice.
(§7) Single cell suspensions of PDX cells were resuspended in 50% (v/v) mixtures of normal matrigel (BD Biosciences) and flow cytometry buffer in a total volume of 50-100 μL. Using an insulin syringe, cells were injected subcutaneously into the nipple of female NSG mice at the fourth abdominal fat pad. For limiting dilution assays, the specific number of cells injected into the mice were determined by flow cytometry and secondarily by manual counting with a hemocytometer.
(§8) Flow cytometry was performed with a 100 μm nozzle on a Flow Cytometry Aria II (BD Biosciences) with Diva software (BD Biosciences). Data analysis was performed using Flowjo software (Flowjo). For all experiments, side scatter and forward scatter profiles (area and width) were used to eliminate debris and cell doublets. Dead cells were eliminated by excluding 4′,6-diamidino-2-phenylindole (DAPI)-positive cells (Molecular Probes). For PDX tumor cells, they were gated for GFP positivity and then for RFP positivity. RFP percentage is the percentage of GFP positive cells that are also RFP positive. For each sample, we obtain the RFP fraction that is: the RFP % in the tumor divided by the baseline RFP % (see ‘Lentivirus infection’ section). RFP fraction for each sample is then normalized to the RFP fraction for the shRNA control sample which is set at 100% to obtain the ‘Normalized % RFP’.

PDX-T4 [6] = assay: as above; type: in vivo
Protocol: as §3, §6, §7, §8

PDX-T2 = assay: as above; type: in vivo; details: normalized to control shRNA
Protocol: as §3, §6, §7, §8

PDX-T3 = assay: as above; type: in vivo; details: normalized to control shRNA
Protocol: as §3, §6, §7, §8

CDK19 = assay: Quantitative PCR RNA expression analysis of CDK19 knockdown; type: cell-based, human; details: normalized to control shRNA and beta-actin
Protocol: Cells were lysed with Trizol (Life Technologies) and RNA was extracted according to the manufacturer's instruction. RNA was then treated with DNAsel to remove contaminating genomic DNA. RNA was reverse transcribed to cDNA using SuperScript III First Strand Synthesis kit (Life Technologies) according to the manufacturer's instructions. TaqMan Gene Expression Master Mix (Applied Biosystems) and the following TaqMan Gene Expression Assays (Applied Biosystems) were used following manufacturer's instructions: ACTB, Hs00357333_g1; CDK19, Hs01039931_m1; CDK8, Hs00993274_m1. Data was collected on a 7900HT Fast Real-Time PCR System (Applied Biosystems) and data analyzed with SDS 2.4 software (Applied Biosystems). Gene expression data in each sample was normalized against the expression of beta-actin.

Substance	Relative viability of MDA-MB468 cells (MDA-MB468 cells)	Relative viability of MDA-MB231 cells (MDA-MB231 cells)	Relative viability of HS578T cells (HS578T cells)	Formation of organoid colonies (PDX-T1 tumor cells)	Relative viability of HMEC cells [1]	RFP positive lung metastases (PDX-T1 [2])	RFP positive lung metastases (PDX-T4 [3])	Overall survival (PDX-T1 [4])	Percentage of RFP positive cells in tumors (PDX-T1 [5])	Growth of the PDX (PDX-T4 [6])	Percentage of RFP positive cells in tumors (PDX-T2)	Percentage of RFP positive cells in tumors (PDX-T3)	Expression of CDK19 by RT-qPCR (CDK19; MDA-MB231)	Expression of CDK19 by RT-qPCR (CDK19; MDA-MB468)	Expression of CDK19 by RT-qPCR (CDK19; PDX-T1)
shCDK19-2: CDK19 targeting shRNA, sense strand 5′-ACCAGCAAATATCCTAGTAAT-3′ (SEQ ID NO: 2), lentiviral vector (sense ACCAGCAAATATCCTAGTAAT; listed as Homo sapiens)	significantly decreased the viability	significantly decreased the viability	significantly decreased the viability	inhibited the formation of organoid colonies	neither of the two CDK19 knockdowns affected the viability	eliminated the detection of any lung metastases	prevented transduced (RFP positive) TNBC cells from metastasizing to the lungs	significantly longer	significant reduction in the percentage of RFP positive cells	inhibited both the growth of the PDX	significant reduction in the percentage of RFP positive cells	significant reduction in the percentage of RFP positive cells	effectively silences CDK19	effectively silences CDK19	effectively silences CDK19
shCDK19-1: CDK19 targeting shRNA, sense strand 5′-GCGAGAATTGAAGTACCTTAA-3′ (SEQ ID NO: 1), lentiviral vector (sense GCGAGAATTGAAGTACCTTAA; listed as Homo sapiens)	significantly decreased the viability	significantly decreased the viability	significantly decreased the viability	inhibited the formation of organoid colonies	neither of the two CDK19 knockdowns affected the viability	eliminated the detection of any lung metastases	prevented transduced (RFP positive) TNBC cells from metastasizing to the lungs	significantly longer	significant reduction in the percentage of RFP positive cells	inhibited both the growth of the PDX	significant reduction in the percentage of RFP positive cells	significant reduction in the percentage of RFP positive cells	effectively silences CDK19	effectively silences CDK19	effectively silences CDK19
